Test results from article PMC4896453 (PLoS ONE, 2016).
Entries after “also recorded” stand apart in the source; their conditions may differ. Read-outs that look alike come from different tables or passages of the source.

Columns and labels:
rat = details: in vivo; cited from earlier work
[1] = biological target: human NOP receptor (NOP-RLuc/Gβ1-RGFP) (Homo sapiens, UniProt P41146); experiment: biochemical; format: biochemical
human Mu receptor = biological target: T1, human Mu receptor (Homo sapiens, UniProt P35372); experiment: Calcium mobilisation, CHO cells with Mu and Gαqi5; format: cell-based; details: calcium mobilisation, at least 3 experiments in duplicate
T1 construct: expressed in transfected cells; host or cells: CHO

human NOP receptor = biological target: T2, human NOP receptor (Homo sapiens, UniProt P41146); experiment: Calcium mobilisation, CHO cells with NOP and Gαqi5; format: cell-based; details: calcium mobilisation, CHO cells with human NOP and Gαqi5, Fluo-4 AM, 37°C; at least 3 experiments in duplicate
T2 construct: expressed in transfected cells; host or cells: CHO

rats = experiment: Rota-rod test after intrathecal infusion; format: in vivo, rat; details: same range of doses (0.1–1 nmol), data not shown
Experimental: For all the experiments described below, male Sprague-Dawley rats (Harlan, Varese, Italy), weighing approximately 280-300g at the beginning of the experimental procedure, were used. Animals were housed in CeSAL (Centro Stabulazione Animali da Laboratorio, University of Florence) and used at least one week after their arrival. One rat was housed per cage (size 26x41 cm); animals were fed with standard laboratory diet and tap water ad libitum, and kept at 23±1°C with a 12 h light/dark cycle, light at 7 a.m. […] All animals were monitored daily using a scoring system (based on: Appearance, Food and Water Intake, Clinical Signs, Natural Behaviour and Provoked Behaviour. Maximum score is 20 and animals reaching 10 are euthanized. In the experiments reported here no animals reached this score and none died before the end of the experiment) and at the end of the experiment were euthanized by CO2 overdose. […]
Rota-rod apparatus (Ugo Basile, Varese, Italy) consisted of a base platform and a rotating rod with a diameter of 6 cm and a non-slippery surface. […] The integrity of motor coordination was assessed on the basis of the number of falls from the rod in 60s measured 15, 30, 45, 60, 90, 120 and 180 min after treatments.

[2] = biological target: T3, human NOP receptor (NOP-RLuc/β-arrestin 2-RGFP) (Homo sapiens, UniProt P41146); experiment: BRET NOP-RLuc/β-arrestin 2-RGFP interaction, HEK-293 cells; format: cell-based; details: BRET, HEK-293 cells, room temperature; at least 4 experiments in duplicate
T3 construct: expressed in transfected cells; host or cells: HEK-293 (retroviral expression; whole cells)

[3] = biological target: T4, human Mu receptor (Mu-RLuc/β-arrestin 2-RGFP) (Homo sapiens, UniProt P35372); experiment: BRET Mu-RLuc/β-arrestin 2-RGFP interaction, SH-SY5Y cells; format: cell-based; details: BRET, SH-SY5Y cells, room temperature; at least 4 experiments in duplicate
T4 construct: expressed in transfected cells; host or cells: SH-SY5Y (retroviral expression; whole cells)

[4] = system: electrically stimulated guinea pig ileum; experiment: Electrically stimulated guinea pig ileum bioassay; details: for Kb: Cavia porcellus
Experimental: With approval of Animal Subjects Review Board of the University of Ferrara and from the Italian Ministry of Health (PROT-186) ileum tissues were taken from male albino guinea pigs of 350–400 g (Pampaloni, Pisa, Italy). The animals were treated in accordance with European guidelines (86/609/ECC) and national regulations (DL 116/92). They were housed in 560 x 320 x 180 mm cages (Techinplast), three per cage, under standard conditions (22°C, 55% humidity, 12 h light/dark cycle, light on at 7:00 h) with food (complete feed for guinea pig, Mucedola, Milano, Italy) and water ad libitum. The day of the experiment the animals were killed with an isofluorane overdose. Bioassay experiments were performed as previously described. The tissues were suspended in 5 ml organ baths containing Krebs solution (composition in mM: NaCl 118.5, KCl 4.7, MgSO4 1.2, KH2PO4 1.2, NaHCO3 25, CaCl2 1.8, glucose 10), hexamethonium bromide 22 μM, benadril 0.34 μM and oxygenated with 95% O2 and 5% CO2. The temperature was set at 37°C. At resting tension, 1 g was applied to the tissues. Tissues were stimulated through two platinum electrodes with a supramaximal rectangular pulse of 1 ms duration, 0.05 Hz frequency, 80V amplitude. Electrically evoked contractions were measured isotonically by means of Basile strain gauge transducers (Basile 7006; srl Ugo Basile, Varese, Italy) and recorded with a computer–based acquisition system (Power Lab 8, ADInstruments, USA). After an equilibration period of about 60 min, the contractions induced by electrical field stimulation were stable. At this time, cumulative concentration response curves to agonists were constructed (0.5 log unit steps). Antagonists were injected into the baths 15 minutes before constructing agonist concentration response curves.
Data are expressed as mean±SEM or with confidence intervals as appropriate. For more than 2 groups, data are analysed using ANOVA with post-hoc testing using Dunnett’s or Bonferroni’s test as appropriate. Where there are only 2 groups paired or unpaired t-tests were used. P values of less than 0.05 were considered significant. All curve fitting was accomplished using Graphpad-Prism (V6). […] In gpI experiments the antagonist potency (pKb) is calculated from the rightward shift of the agonist concentration response curve by a fixed antagonist concentration.

monkey = monkey tail withdraw assay; cited from earlier work
[5] = biological target: T5, NOP receptor (CHOhNOP cells) (Homo sapiens, UniProt P41146); experiment: cAMP assay, forskolin-stimulated CHOhNOP whole cells; format: cell-based; details: forskolin 1μM, mean (±SEM)
T5 construct: expressed in transfected cells; host or cells: CHO (Chinese Hamster Ovary)
Experimental: (§1) CHOhMu and CHOhNOP whole cells were suspended in Krebs/HEPES buffer, containing isobutylmethylxanthine (1mM) and forskolin (1μM).

[6] = biological target: T6, Mu receptor (CHOhMu cells) (Homo sapiens, UniProt P35372); experiment: cAMP assay, forskolin-stimulated CHOhMu whole cells; format: cell-based; details: forskolin 1μM, mean (±SEM)
T6 construct: expressed in transfected cells; host or cells: CHO (Chinese Hamster Ovary)
Experimental: as §1

[7] = antagonist 15 minutes before agonist curve, from rightward shift, read-out: antagonist potency pKb against DeNo (converted)

T1 sequence (P35372 whole entry): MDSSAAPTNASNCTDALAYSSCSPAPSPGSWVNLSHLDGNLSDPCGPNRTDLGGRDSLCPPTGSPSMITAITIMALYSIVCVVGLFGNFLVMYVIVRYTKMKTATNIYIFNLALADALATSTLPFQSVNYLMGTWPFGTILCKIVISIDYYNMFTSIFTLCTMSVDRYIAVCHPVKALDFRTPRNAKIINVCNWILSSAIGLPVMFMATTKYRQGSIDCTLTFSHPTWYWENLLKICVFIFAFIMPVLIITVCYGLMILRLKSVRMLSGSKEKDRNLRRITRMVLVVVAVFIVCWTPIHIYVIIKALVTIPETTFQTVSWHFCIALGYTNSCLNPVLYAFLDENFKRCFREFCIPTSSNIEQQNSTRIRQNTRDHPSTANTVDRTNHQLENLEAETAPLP
Chain of human NOP receptor (NOP-RLuc/Gβ1-RGFP) (P41146 whole entry, looked up): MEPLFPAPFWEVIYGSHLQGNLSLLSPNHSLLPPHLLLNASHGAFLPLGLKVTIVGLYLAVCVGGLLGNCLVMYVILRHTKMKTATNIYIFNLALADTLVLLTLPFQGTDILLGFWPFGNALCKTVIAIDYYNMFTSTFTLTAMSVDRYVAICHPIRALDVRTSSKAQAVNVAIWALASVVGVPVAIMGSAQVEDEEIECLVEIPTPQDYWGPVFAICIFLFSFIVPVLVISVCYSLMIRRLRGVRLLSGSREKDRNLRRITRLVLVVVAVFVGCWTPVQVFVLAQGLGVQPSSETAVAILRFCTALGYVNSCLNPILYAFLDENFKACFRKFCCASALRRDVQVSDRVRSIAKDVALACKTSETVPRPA
T5 sequence (P41146 whole entry): as the sequence (P41146 whole entry, looked up) above
T2 sequence (P41146 whole entry): as the sequence (P41146 whole entry, looked up) above
T6 sequence (P35372 whole entry): as the sequence (P35372 whole entry) above
T4 sequence (P35372+P27652 fused): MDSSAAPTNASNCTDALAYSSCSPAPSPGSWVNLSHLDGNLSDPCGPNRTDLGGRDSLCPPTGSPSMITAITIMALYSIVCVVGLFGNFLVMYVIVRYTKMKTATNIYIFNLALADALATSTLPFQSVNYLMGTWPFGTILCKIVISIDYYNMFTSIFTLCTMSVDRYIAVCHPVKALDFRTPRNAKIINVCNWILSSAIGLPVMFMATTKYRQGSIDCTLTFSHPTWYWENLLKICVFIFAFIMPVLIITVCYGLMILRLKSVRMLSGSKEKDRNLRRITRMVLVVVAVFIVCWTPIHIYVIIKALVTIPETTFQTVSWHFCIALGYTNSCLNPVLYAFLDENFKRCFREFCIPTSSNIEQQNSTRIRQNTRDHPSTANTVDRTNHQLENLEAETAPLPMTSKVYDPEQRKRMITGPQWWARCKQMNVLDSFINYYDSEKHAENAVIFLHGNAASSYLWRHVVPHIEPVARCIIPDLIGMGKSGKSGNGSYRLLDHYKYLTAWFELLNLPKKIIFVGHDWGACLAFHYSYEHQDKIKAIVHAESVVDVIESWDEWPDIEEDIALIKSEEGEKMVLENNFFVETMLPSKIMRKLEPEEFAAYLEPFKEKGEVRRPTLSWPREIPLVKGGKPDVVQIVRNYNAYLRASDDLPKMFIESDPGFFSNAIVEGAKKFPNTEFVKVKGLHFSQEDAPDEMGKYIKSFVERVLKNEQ
T4 sequence (P32121 whole entry partner): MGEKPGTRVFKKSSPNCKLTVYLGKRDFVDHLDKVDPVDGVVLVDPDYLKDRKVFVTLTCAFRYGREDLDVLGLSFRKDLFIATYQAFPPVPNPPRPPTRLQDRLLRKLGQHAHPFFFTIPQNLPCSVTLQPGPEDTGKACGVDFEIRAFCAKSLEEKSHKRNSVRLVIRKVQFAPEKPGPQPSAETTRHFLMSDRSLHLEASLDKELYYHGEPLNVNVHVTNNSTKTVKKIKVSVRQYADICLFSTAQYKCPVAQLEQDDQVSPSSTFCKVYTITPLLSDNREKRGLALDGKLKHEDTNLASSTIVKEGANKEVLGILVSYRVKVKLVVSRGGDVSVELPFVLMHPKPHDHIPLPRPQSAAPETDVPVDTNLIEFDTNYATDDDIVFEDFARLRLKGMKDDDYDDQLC
T3 sequence (P41146+P27652 fused): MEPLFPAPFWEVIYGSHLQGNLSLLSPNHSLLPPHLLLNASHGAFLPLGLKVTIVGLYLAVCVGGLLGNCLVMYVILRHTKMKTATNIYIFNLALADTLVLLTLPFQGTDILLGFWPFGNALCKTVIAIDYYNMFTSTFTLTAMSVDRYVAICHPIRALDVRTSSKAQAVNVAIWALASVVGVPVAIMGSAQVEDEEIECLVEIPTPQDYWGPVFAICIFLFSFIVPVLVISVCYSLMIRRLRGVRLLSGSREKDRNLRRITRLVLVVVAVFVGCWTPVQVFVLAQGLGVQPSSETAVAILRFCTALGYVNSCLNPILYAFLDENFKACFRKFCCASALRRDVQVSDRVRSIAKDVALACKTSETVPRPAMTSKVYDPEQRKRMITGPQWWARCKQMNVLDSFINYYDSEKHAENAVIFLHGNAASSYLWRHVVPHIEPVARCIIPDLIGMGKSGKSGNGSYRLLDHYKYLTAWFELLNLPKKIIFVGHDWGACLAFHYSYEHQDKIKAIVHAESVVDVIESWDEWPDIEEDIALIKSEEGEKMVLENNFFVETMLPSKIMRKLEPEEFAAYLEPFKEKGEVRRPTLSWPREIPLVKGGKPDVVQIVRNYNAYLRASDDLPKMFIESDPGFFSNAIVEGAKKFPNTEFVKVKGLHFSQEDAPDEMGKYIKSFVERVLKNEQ
T3 sequence (P32121 whole entry partner): as the sequence (P32121 whole entry partner) above

CN1CC[C@]23c4c5ccc(O)c4O[C@H]2[C@@H](O)C=C[C@H]3[C@H]1C5 [morphine]
time to tolerance (rat): 11 days

C[C@@H](NC(=O)[C@@H](N)Cc1ccc(O)cc1)C(=O)N[C@@H](Cc1ccccc1)C(=O)NCC(=O)N[C@@H](Cc1ccc(O)cc1)C(=O)N1CCC[C@H]1C(=O)N[C@@H](CO)C(N)=O [dermorphin]
Gβ1-protein NOP pEC50(CL95%) [1]: very weak only increasing BRET ratio at micromolar concentrations; also recorded: crc incomplete
Emax (human Mu receptor; % over basal fluorescence, CHO cells with human Mu and Gαqi5, SEM): 234 ± 14%
NOP pEC50 (CL95%) (human NOP receptor): crc incomplete
animal performance in the rotarod test (rats): impaired animal performance in the rotarod test
β-arrestin 2 NOP pEC50 (CL95%) [2]: completely inactive

CC(C)C[C@H](NC(=O)[C@H](CCCCN)NC(=O)[C@H](CCCNC(=N)N)NC(=O)[C@H](C)NC(=O)[C@H](CO)NC(=O)[C@H](CCCCN)NC(=O)[C@H](CCCNC(=N)N)NC(=O)[C@H](C)NC(=O)CNC(=O)[C@@H](NC(=O)[C@H](Cc1ccccc1)NC(=O)CNC(=O)CNC(=O)[C@@H](N)Cc1ccccc1)[C@@H](C)O)C(=O)N[C@@H](C)C(=O)N[C@@H](CC(N)=O)C(=O)N[C@@H](CCC(N)=O)C(=O)O [N/OFQ, nociceptin/orphanin FQ]
Mu Emax ± SEM (human Mu receptor; % over basal fluorescence, CHO cells with human Mu and Gαqi5): Inactive
Mu pEC50 (CL95%) (human Mu receptor; CHO cells with human Mu and Gαqi5, Fluo-4 AM, 37°C): Inactive
β-arrestin 2 Mu pEC50 (CL95%) [3]: inactive

Cc1cccc2c1CC[C@H](CN1CCC(c3c(Cl)cccc3Cl)CC1)C[C@@H]2O [SB-612111]
Kb ([4]; antagonist 100 nM, 15 minutes before agonist curve, from rightward shift, read-out: antagonist potency pKb against N/OFQ (converted)): 4.37 nM
Kb [4, 7]: 85.1 nM

[Dmt^1]N/OFQ(1–13)-NH2
increase in potency over N/OFQ (monkey): 30 fold

C=CCN1CC[C@]23c4c5ccc(O)c4O[C@H]2C(=O)CC[C@@]3(O)[C@H]1C5 [naloxone, Naloxone]
Kb [4, 7]: 28.8 nM
Kb ([4]; read-out: antagonist potency pKb against dermorphin (converted), antagonist 15 minutes before agonist curve, from rightward shift): 2.69 nM
antagonist potency pKb against N/OFQ ([4]; antagonist 100 nM, 15 minutes before agonist curve, from rightward shift): does not affect the inhibitory action of N/OFQ

C=C[C@@]1(C)CC(=O)[C@]2(O)[C@@]3(C)[C@@H](O)CCC(C)(C)[C@@H]3[C@H](O)[C@H](OC(C)=O)[C@@]2(C)O1 [forskolin]
increase in cAMP production compared to basal, CHOhNOP [5]: 21.23 (±3.86) fold
increase in cAMP production compared to basal, CHOhMu [6]: 24.3 (±1.79) fold
